US9018208B2, “Heterocycles as potassium channel modulators” (Icagen Inc., priority 2007, dated 2015)
pEC50: −log10 of the molar value.

These compounds were tested on SH-SY5Y M-currents (KCNQ2, KCNQ3 and KCNQ5) (assay: SH-SY5Y native cell line FLIPR assay (voltage-sensitive dye DiBAC)). Conditions: FLIPR assay, SH-SY5Y native cell line; Table 1; read-out: SH-SY5Y EC50.
Type: cell-based, mouse neuroblastoma, rat glioma hybrid cell line
Source text: SH-SY5Y cells, a mouse neuroblastoma, rat glioma hybrid cell line, functionally express M-currents (Robbins et al., J. Physiol. 451: 159-85 (1992). SH-SY5Y M-currents are likely comprised, at least in part, of KCNQ2, KCNQ3 and KCNQ5, since these genes are reportedly robustly expressed in differentiated SH-SY5Y cells (Selyanko et al., J. Neurosci. 19(18): 7742-56 (1999); Schroeder et al., J. Biol. Chem. 275(31): 24089-95 (2000)) and KCNQ3 dominant-negative constructs reduce M-current density in these cells (Selyanko et al., J. Neurosci. 22(5): RC212 (2002).
SH-SY5Y were maintained in DMEM (high glucose) supplemented with 10% fetal bovine serum, 0.05 mM pyridoxine, 0.1 mM hypoxanthine, 400 nM aminopterin, […], 50 μgml^−1 gentamycin and 10 mM HEPES, in an incubator at 37° C. with a humidified atmosphere of 5% CO2. Cells were plated in 96 well plates differentiated by addition of 10 μM PGE1 and 50 μM isomethylbutylxanthine to the growth media prior to study.
Differentiated SH-SY5Y cells were loaded with voltage-sensitive dye by incubation in Earls Balanced Salt Solution (EBSS) containing […] DiBAC for 1 h. Following loading, drug solution containing […] DiBAC was added to each well. Changes in fluorescence were measured every 30 s for 25 min. The maximum change in fluorescence was measured and expressed as a percentage of the maximum response obtained in the presence of a positive control agent.

Question: `Cc1cccc2nc(NC(=O)C(F)(F)F)cn12` [Compound 8, 2,2,2-trifluoro-N-(5-methylimidazo[1,2-a]pyridin-2-yl)acetamide] was tested. Which pEC50 did it give?
Answer: Its pEC50 is 5.00 to 5.52.

Question: How did the pEC50 turn out when `Cc1cccc2nc(NC(=O)CC(C)(C)C)cn12` [Compound 9, 3,3-dimethyl-N-(5-methylimidazo[1,2-a]pyridin-2-yl)butanamide] was run?
Answer: Its pEC50 is 5.00 to 5.52.

Question: `O=C(Nc1cn2cc(F)ccc2n1)C(F)(F)F` [Compound 10, 2,2,2-trifluoro-N-(6-fluoroimidazo[1,2-a]pyridin-2-yl)acetamide] was tested. Which pEC50 did it give?
Answer: The pEC50 was 5.00 to 5.52.

Question: With `O=C(Nc1nc2ccc(F)cn2c1I)C(F)(F)F` [Compound 11, 2,2,2-trifluoro-N-(6-fluoro-3-iodoimidazo[1,2-a]pyridin-2-yl)acetamide] as the compound, how does the pEC50 read?
Answer: Its pEC50 is 5.00 to 5.52.

Question: `O=C(Nc1cn2c(C(F)(F)F)cccc2n1)C(F)(F)F` [Compound 12, 2,2,2-trifluoro-N-(5-(trifluoromethyl)imidazo[1,2-a]pyridin-2-yl)acetamide] was tested. Which pEC50 did it give?
Answer: Its pEC50 is 5.00 to 5.52.

Question: With `O=C(Cc1ccc(F)cc1)Nc1cn2c(C(F)(F)F)cccc2n1` [Compound 13, 2-(4-fluorophenyl)-N-(5-(trifluoromethyl)imidazo[1,2-a]pyridin-2-yl)acetamide] as the compound, how does the pEC50 read?
Answer: Its pEC50 is 5.00 to 5.52.

Question: `CC(C)(C)CC(=O)Nc1nc2ccc(F)cn2c1C1CC1` [Compound 14, N-(3-cyclopropyl-6-fluoroimidazo[1,2-a]pyridin-2-yl)-3,3-dimethylbutanamide] was tested. Which pEC50 did it give?
Answer: Its pEC50 is 5.52 to 6.30.

Question: `CC(C)(C)CC(=O)Nc1nc2ccc(F)cn2c1CC(C)(C)C` [Compound 15, N-(6-fluoro-3-neopentylimidazo[1,2-a]pyridin-2-yl)-3,3-dimethylbutanamide] was tested. Which pEC50 did it give?
Answer: The pEC50 was 5.52 to 6.30.

Question: How did the pEC50 turn out when `CC(C)(C)CC(=O)Nc1nc2ccc(F)cn2c1Cc1ccc(F)cc1` [Compound 16, N-(6-fluoro-3-(4-fluorobenzyl)imidazo[1,2-a]pyridin-2-yl)-3,3-dimethylbutanamide] was run?
Answer: The pEC50 was > 6.30.

Question: With `CC(C)(C)Cc1c(NC(=O)Cc2ccc(F)cc2)nc2ccc(F)cn12` [Compound 17, N-(6-fluoro-3-neopentylimidazo[1,2-a]pyridin-2-yl)-2-(4-fluorophenyl) acetamide] as the compound, how does the pEC50 read?
Answer: The pEC50 was > 6.30.

Question: `O=C(Cc1ccc(F)cc1)Nc1nc2ccc(F)cn2c1Cc1ccc(F)cc1` [Compound 18, N-(6-fluoro-3-(4-fluorobenzyl)imidazo[1,2-a]pyridin-2-yl)-2-(4-fluorophenyl)acetamide] was tested. Which pEC50 did it give?
Answer: Its pEC50 is > 6.30.

Question: `CC(C)(C)Cc1c(NC(=O)Cc2ccc(F)cc2)nc2ccc(C(F)(F)F)cn12` [Compound 21, 2-(4-fluorophenyl)-N-(3-neopentyl-6-(trifluoromethyl)imidazo[1,2-a]pyridin-2-yl)acetamide] was tested. Which pEC50 did it give?
Answer: Its pEC50 is > 6.30.

Question: How did the pEC50 turn out when `CC(C)(C)Cc1c(NC(=O)Cc2ccc(Oc3ccccc3)cc2)nc2ccc(C(F)(F)F)cn12` [Compound 22, N-(3-neopentyl-6-(trifluoromethyl)imidazo[1,2-a]pyridin-2-yl)-2-(4-phenoxyphenyl)acetamide] was run?
Answer: Its pEC50 is > 6.30.

Question: How did the pEC50 turn out when `CC(C)(C)Cc1c(NC(=O)Cc2cccc(OC(F)(F)F)c2)nc2ccc(C(F)(F)F)cn12` [Compound 25, N-(3-neopentyl-6-(trifluoromethyl)imidazo[1,2-a]pyridin-2-yl)-2-(3-(trifluoromethoxy)phenyl)acetamide] was run?
Answer: The pEC50 was > 6.30.

Question: `CC(C)(C)Cc1c(NC(=O)Cc2ccc(OC(F)(F)F)cc2)nc2ccc(C(F)(F)F)cn12` [Compound 26, N-(3-neopentyl-6-(trifluoromethyl)imidazo[1,2-a]pyridin-2-yl)-2-(4-(trifluoromethoxy)phenyl)acetamide] was tested. Which pEC50 did it give?
Answer: Its pEC50 is > 6.30.

Same assay, conditions: FLIPR assay, SH-SY5Y native cell line; Table 2; read-out: SH-SY5Y EC50

Question: “2-(3,4-dichlorophenyl)-N-(6-fluoro-3-(4-fluorophenyl)imidazo yl)acetamide [Compound 142]” was tested. Which pEC50 did it give?
Answer: The pEC50 was > 6.30.

Question: With “2-(3-chlorophenyl)-N-(6-fluoro-3-(4-(trifluoromethoxy)phenyl)imidazo yl)acetamide [Compound 239]” as the compound, how does the pEC50 read?
Answer: The pEC50 was > 6.30.

Question: “3-tert-butoxy-N-(6-fluoro-3-(4-(trifluoromethoxy)phenyl)imidazo yl)propanamide [Compound 261]” was tested. Which pEC50 did it give?
Answer: Its pEC50 is > 6.30.

Same assay, conditions: read-out: SH-SY5Y_EC50

Question: With `CC(C)(C)CC(=O)Nc1nc2ccc(F)cn2c1C1CC1` [Compound 14, N-(3-cyclopropyl-6-fluoroimidazo[1,2-a]pyridin-2-yl)-3,3-dimethylbutanamide] as the compound, how does the pEC50 read?
Answer: The pEC50 was 5.59.
